{
  "source": "patent US11707442B2",
  "about": "“Antibacterial and antifungal compounds” (The General Hospital Corporation, priority 2015, dated 2023)",
  "key": {"[1]": {"test_system": "K. pneumoniae", "test": "Disc clearing assay", "type": "cell-based, Klebsiella pneumoniae", "details": "result in words", "method": "(§1) Disc clearing assay: The disc diffusion test was performed on Mueller Hinton (MH) agar plates for bacterial cultures and yeast extract, peptone, dextrose (YPD) for fungal cultures. The assay was repeated 3 times. Discs were soaked in 10 μl of either DMSO or 10 mg/ml compound stock solution and air-dried. Three hundred microliters of an overnight culture of bacteria or fungi were spread on plates. After completely drying the agar plate in a laminar flow hood, DMSO or compound impregnated discs were overlaid on the plate and incubated at 35° C. for 18 hrs."}, "[2]": {"test_system": "A. baumannii", "test": "Disc clearing assay", "type": "cell-based, Acinetobacter baumannii", "details": "result in words", "method": "as §1"}, "[3]": {"test_system": "HepG2 cells", "test": "Toxicity assay with HepG2 liver cells (WST-1)", "type": "cell-based", "details": "24 hours; result in words", "method": "HepG2 cells were cultured in Dulbecco's modified Eagle medium (DMEM) containing 10% fetal bovine serum, 25 mM D-glucose, 2 mM L-glutamine, 1 mM sodium pyruvate and 1% penicillin/streptomycin and maintained at 37° C. in 5% CO2. For the toxicity test, HepG2 were cultured at 70-80% confluence in 96-well plates in a volume of 100 μl/well culture medium. Serially diluted chemical compounds were incubated with the cells at 37° C. in 5% CO2 for 24 hours. Ten microliters of 4-(3-(4-iodophenyl)-2-(4-nitrophenyl)-2H-5-tetrazolio)-1,3-benzene disulfonate (WST-1) solution were added per well for the last 4 hours of the 24 hours period. WST-1 reduction was detected using absorbance at 490 nm by a Vmax microplate reader. The percent […] relative to that of the no-treatment control was calculated. The assay was done in triplicate."}, "[4]": {"test_system": "E. faecium", "test": "Disc clearing assay", "type": "cell-based, Enterococcus faecium", "details": "result in words", "method": "as §1"}, "[5]": {"test_system": "P aeruginosa", "test": "Disc clearing assay", "type": "cell-based, Pseudomonas aeruginosa", "details": "result in words", "method": "as §1"}, "[6]": {"test_system": "S. aureus", "test": "Minimal inhibitory concentration (MIC), broth microdilution", "type": "cell-based, Staphylococcus aureus", "details": "for MIC: Staphylococcus aureus, read-out: MIC", "in_short": "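MIC values against methicillin-resistant Staphylococcus aureus were determined by standard broth microdilution following Clinical and Laboratory Standards Institute guidance (CLSI document M07-A8). Each well held 100 μl of test compound plus bacterial cells in MH broth, with the starting OD600 set to 0.03. Plates were incubated 18 hrs at 35° C. and absorbance was then read at 595 nm.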"}, "[7]": {"test_system": "E. spp.", "test": "Disc clearing assay", "type": "cell-based, Enterobacter sp.", "details": "result in words", "method": "as §1"}, "[8]": {"test_system": "human erythrocytes", "test": "Human blood hemolysis", "type": "cell-based", "details": "increasing concentrations; result in words", "experimental": "Human blood hemolysis. Hemolytic activity of retinoids on human erythrocytes was evaluated using a previously described method with modifications (Rajamuthiah, R. et al. A defensin from the model beetle Tribolium castaneum acts synergistically with telavancin and daptomycin against multidrug resistant Staphylococcus aureus. PLoS ONE 10, e0128576 (2015)). 10% human erythrocytes were purchased from Rockland Immunochemicals (Limerick, Pa., USA). The erythrocytes were diluted to 4% with PBS, and 100 μl was added to 100 μl of two-fold serial dilutions of compounds in PBS, 0.2% DMSO (negative control), or 2% Triton-X 100 (positive control) in a 96-well plate. The 96-well plate was incubated at 37° C. for 1 h and then centrifuged at 500×g for 5 min. 100 μl of the supernatant was transferred to a fresh 96-well plate, and absorbance of supernatants was measured at 540 nm. Percent hemolysis was calculated using the following equation: (A540 nm of compound treated sample—A540nm of 0.1% DMSO treated sample)/(A540 nm of 1% Triton X-100 treated sample—A540nm of 0.1% DMSO treated sample)×100. HC50 (concentration of a compound causing 50% hemolysis) was determined using SigmaPlot 10.0 (Systat Software Inc., San Jose, Calif., USA).\nIn a 96 well plate, 50 μl of 2% human erythrocytes suspended in PBS was added to 50 μl of compounds serially diluted in PBS and incubated at 37° C. for 1 hour. The plate was then centrifuged at 500 G for 5 minutes and 50 μl of the supernatant from each well of the assay plate was transferred to a fresh 96 well plate. Hemolysis was confirmed by both visual observation and measuring absorbance at 540 nm. Treatment was conducted in triplicate.\n2% human erythrocytes were treated with two-fold serially diluted concentration of the retinoids for 1 h at 37° C. A sample treated with 1% Triton-X 100 was used as the control for 100% hemolysis. Results are shown as means±s.d.; n=3."}, "[9]": {"test_system": "C. parapsilosis", "test": "Disc clearing assay", "type": "cell-based, Candida parapsilosis", "details": "result in words", "method": "as §1"}, "[10]": {"test_system": "C. tropicalis", "test": "Disc clearing assay", "type": "cell-based, Candida tropicalis", "details": "result in words", "method": "as §1"}, "[11]": {"test_system": "S. aureus, E. faecium, and A. baumannii", "test": "Static versus cidal assessment (MBC)", "type": "cell-based", "details": "result in words", "method": "Static versus cidal assessment: The minimum bactericidal concentration (MBC) was determined as follows: 10 μl of bacterial culture from each micro-well of the MIC assay was plated on MH agar and incubated at 35° C. overnight. The lowest compound concentration at which there was no bacterial colony growth was considered the MBC."}, "[12]": {"test_system": "C. albicans biofilm", "test": "Biofilm growth on silicone pads", "type": "cell-based, Candida albicans", "details": "result in words", "method": "C. albicans were grown in YPD medium overnight at 30° C., diluted to an OD600 of 0.5 in 2 mL Spider medium, and added to a well of a sterile 12-well plate containing a silicone pad measuring 1.5×1.5 cm that had been pretreated overnight with bovine serum (Sigma-Aldrich). The inoculated 12-well plate was incubated with gentle agitation (150 rpm) for 90 min at 37° C. for adhesion to occur. The samples were washed with 2 ml PBS, and after the 90-min incubation, and PBS wash, auranofin was added to fresh media at 4 μg/ml (n=4), 8 μg/ml (n=4), 16 μg/ml (n=4), and 32 μg/ml (n=4).\nControl groups were included that contained C. albicans alone in Spider medium without auranofin (n=4) and a negative control group of Spider medium without any fungal cells (n=4).\nThe silicone pads with biofilm were removed from the wells, dried overnight, and weighed the following day. The total biomass (mg) of each biofilm was calculated by subtracting the weight of the platform material prior to biofilm growth from the weight after the drying period and adjusting for the weight of a control pad exposed to no cells.\nStatistical significance among the different groups was determined by the analysis of variance (ANOVA) and the Tukey test using the Graph Pad Prism Program."}, "[13]": {"test_system": "E. faecalis", "test": "Disc clearing assay", "type": "cell-based, Enterococcus faecalis", "details": "result in words", "method": "as §1"}, "[14]": {"test_system": "C. glabrata", "test": "Disc clearing assay", "type": "cell-based, Candida glabrata", "details": "result in words", "method": "as §1"}, "[15]": {"test_system": "MRSA strain MW2", "test": "Checkerboard assay (combination)", "type": "cell-based, Staphylococcus aureus", "details": "result in words", "method": "(§2) Checkerboard assay (e.g., antibiotic synergy test): The antimicrobial or antifungal activity of a combination of a compound of present application with other agents was determined through a checkerboard assay. The checkerboard method for determining synergy of synthetic retinoids with conventional antibiotics can be conducted, for example, as previously described (See, e.g., Rajamuthiah, R. et al. A defensin from the model beetle Tribolium castaneum acts synergistically with telavancin and daptomycin against multidrug resistant Staphylococcus aureus. PLoS ONE 10, e0128576 (2015)) The compounds whose combinations were being tested were arrayed in serial concentrations, vertically for one compound and horizontally for the other compound in the same 96 well microplate. 2-fold serial dilutions of each retinoid were combined with 2-fold serial dilutions of each conventional antibiotic, which created an 8×8 matrix in a 96-well microtiter plate. The rest of the procedure involving addition of pathogen and measurement of growth was carried out as described for measurement of MIC.\nThe Fractional Inhibitory Concentration (FIC) index for two compounds, A and B, is defined by the following equation: FIC=((A/MIC^A)+(B/MIC^B)). MIC^A and NIC^B are MICs of compound A or B respectively. (A) is the lowest concentration of compound A in combination with compound B that inhibits growth of a pathogen and (B) is the lowest concentration of compound B that inhibits growth of a pathogen.\nOptical densities at 600 nm were measured after 18 h of incubation at 37° C. The results represent three independent experiments."}, "[16]": {"test_system": "C. albicans", "test": "Static versus cidal assessment (MFC)", "type": "cell-based, Candida albicans", "details": "result in words", "method": "The minimum fungicidal concentration was (MFC) was determined as follows: 10 μl of yeast culture from each micro-well of the MIC assay was plated on YPD agar and incubated at 35° C. overnight. The lowest compound concentration at which there was no fungal colony growth was considered the MFC."}, "[17]": {"test_system": "S. aureus", "test": "Disc clearing assay", "type": "cell-based, Staphylococcus aureus", "details": "result in words", "method": "as §1\nThe disc diffusion test was carried out in triplicate on cation-adjusted Miller-Hinton agar. 6 mm discs were impregnated with 50 μg of compounds and air-dried. Three hundred microliters of an overnight S. aureus MW2 culture was spread on an agar plate and air-dried. The antimicrobial discs were overlaid on the plate and incubated at 37° C. for 20 hrs."}, "[18]": {"test_system": "C. neoformans", "test": "Checkerboard assay with oxidizing agents", "type": "cell-based, Cryptococcus neoformans", "details": "result in words", "method": "as §2\n(§3) The Fractional Inhibitory Concentration (FIC) index for two compounds, A and B, is defined by the following equation: FIC=((A/MIC^A)+(B/MIC^B)). MIC^A and NIC^B are MICs of compound A or B respectively. […]"}, "[19]": {"test_system": "B. subtilis", "test": "Disc clearing assay", "type": "cell-based, Bacillus subtilis", "details": "result in words", "method": "as §1"}, "[20]": {"test_system": "C. neoformans", "test": "Disc clearing assay", "type": "cell-based, Cryptococcus neoformans", "details": "impregnated filter; result in words", "method": "as §1"}, "[21]": {"test": "Checkerboard assay of auranofin with amphotericin B and fluconazole", "type": "cell-based", "details": "result in words", "method": "as §2, §3"}, "[22]": {"test_system": "E. faecium", "test": "Checkerboard assay with glutathione", "type": "cell-based, Enterococcus faecium", "details": "result in words", "method": "as §2, §3"}},
  "note": "“Also recorded” adds a separate entry of the source. Read-outs that look alike come from different tables or passages of the source.",
  "data": [
    {"smiles": "CC1COc2c(N3CCN(C)CC3)c(F)cc3c(=O)c(C(=O)OCc4ccccn4)cn1c23", "note": "(stereo not shown) [Z3060, pyridin-2-ylmethyl 9-fluoro-3-methyl-10-(4-methylpiperazin-1-yl)-7-oxo-3,7-dihydro-2H-[1,4]oxazino[2,3,4-ij]quinoline-6-carboxylate]", "values": [
      {"measurement": "zone of inhibition, K. pneumoniae", "setting": "[1]", "value": "zone of inhibition"},
      {"measurement": "zone of inhibition, A. baumannii", "setting": "[2]", "value": "zone of inhibition"},
      {"measurement": "HepG2 cell viability", "setting": "[3]", "value": "cell viability are maintained"},
      {"measurement": "zone of inhibition, E. faecium", "setting": "[4]", "value": "zone of inhibition"},
      {"measurement": "zone of inhibition, P aeruginosa", "setting": "[5]", "value": "zone of inhibition"},
      {"measurement": "MIC", "setting": "[6]; S. aureus (reference strain)", "value": 2, "unit": "µg/mL"},
      {"measurement": "MIC", "setting": "[6]; clinical isolates of S. aureus (Z3060)", "value": "1 to 2", "unit": "µg/mL"},
      {"measurement": "MIC change", "setting": "[6]; clinical isolates known to be drug resistant, result in words", "value": "increased"},
      {"measurement": "zone of inhibition, E. spp.", "setting": "[7]", "value": "zone of inhibition"},
      {"measurement": "toxicity (hemolysis) to erythrocytes", "setting": "[8]", "value": "did not exhibit lysis"}
    ]},
    {"smiles": "CC[P](CC)(CC)=[Au][S][C@@H]1O[C@H](COC(C)=O)[C@@H](OC(C)=O)[C@H](OC(C)=O)[C@H]1OC(C)=O", "note": "[Auranofin, 2,3,4,6-tetra-o-acetyl-1-thio-D-glucanpyranosato-S-(triethyl-phosphine)-gold]", "values": [
      {"measurement": "zones of inhibition, C. parapsilosis", "setting": "[9]", "value": "zones of inhibition"},
      {"measurement": "zone of inhibition, A. baumannii", "setting": "[2]", "value": "zone of inhibition"},
      {"measurement": "zones of inhibition, C. tropicalis", "setting": "[10]", "value": "zones of inhibition"},
      {"measurement": "static versus cidal nature of the inhibition", "setting": "[11]", "value": "bacteriostatic at the MIC concentration but bactericidal at higher concentrations"},
      {"measurement": "C. albicans biofilm formation", "setting": "[12]", "value": "not significantly reduced"},
      {"measurement": "zone of inhibition, E. faecium", "setting": "[4]", "value": "zone of inhibition"},
      {"measurement": "zone of inhibition, E. faecalis", "setting": "[13]", "value": "clearing; also recorded: zone of inhibition"},
      {"measurement": "zones of inhibition, C. glabrata", "setting": "[14]", "value": "zones of inhibition"},
      {"measurement": "interaction with hydrogen peroxide", "setting": "[15]; S. aureus", "value": "did not provide any synergistic activity"},
      {"measurement": "static versus cidal activity against C. albicans", "setting": "[16]", "value": "fungistatic"},
      {"measurement": "zone of inhibition, S. aureus", "setting": "[17]", "value": "zone of inhibition"},
      {"measurement": "MIC change in the presence of menadione", "setting": "[18]", "value": "no change in MIC"},
      {"measurement": "interaction with diamide and hydrogen peroxide", "setting": "[18]", "value": "additive effect"},
      {"measurement": "zone of inhibition, B. subtilis", "setting": "[19]", "value": "clearing; also recorded: zone of inhibition"},
      {"measurement": "clearing of C. neoformans", "setting": "[20]", "value": "clearing"},
      {"measurement": "interaction with amphotericin B and fluconazole", "setting": "[21]", "value": "additive effects but not synergism"}
    ]},
    {"smiles": "N[C@@H](CCC(=O)N[C@@H](CS)C(=O)NCC(=O)O)C(=O)O", "note": "[Glutathione]", "values": [
      {"measurement": "inhibition of S. aureus by the agent alone", "setting": "[15]", "value": "did not inhibit"},
      {"measurement": "inhibition of E. faecium by the agent alone", "setting": "[22]", "value": "did not inhibit"}
    ]}
  ]
}
